Data from patent publication US20050004163A1, “3-(diarylmethylene)-8-azabicyclo[3.2.1]octane derivatives” (priority 2000, published 2005).

biological target: T1, μ-opioid receptor (Rattus norvegicus, UniProt P33535); assay: Rat brain μ-opioid receptor binding assay ([3H]DAMGO); conditions: 10 nM solutions of the compounds, read-out: MOR binding Ki
T1 construct: the forebrains are homogenized in Tris buffer in a Teflon®-glass homogenizer; from tissue; host or cells: forebrain of male Wistar rats (particulate membrane preparation)
T1 sequence (P33535 whole entry): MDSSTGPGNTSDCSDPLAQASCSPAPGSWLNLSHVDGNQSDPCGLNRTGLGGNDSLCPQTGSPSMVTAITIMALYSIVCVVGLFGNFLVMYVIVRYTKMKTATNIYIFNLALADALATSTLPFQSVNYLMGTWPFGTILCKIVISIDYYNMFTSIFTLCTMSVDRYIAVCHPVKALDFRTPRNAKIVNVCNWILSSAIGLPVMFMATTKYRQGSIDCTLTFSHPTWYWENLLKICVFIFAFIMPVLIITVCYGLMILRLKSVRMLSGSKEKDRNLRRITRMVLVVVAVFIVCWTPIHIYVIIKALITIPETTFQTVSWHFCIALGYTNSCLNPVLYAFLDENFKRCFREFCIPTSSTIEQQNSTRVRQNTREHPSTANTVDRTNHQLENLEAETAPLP
Procedure: Rat Brain μ-Opioid Receptor Binding Assay
Male, Wistar rats (150-250 g, VAF, Charles River, Kingston, N.Y.) are killed by cervical dislocation and their brains removed and placed immediately in ice cold Tris HCl buffer (50 mM, pH 7.4). The forebrains are separated from the remainder of the brain by a coronal transection, beginning dorsally at the colliculi and passing ventrally through the midbrain-pontine junction. After dissection, the forebrains are homogenized in Tris buffer in a Teflon®-glass homogenizer. The homogenate is diluted to a concentration of 1 g of forebrain tissue per 100 mL Tris buffer and centrifuged at 39,000×G for 10 min. The pellet is resuspended in the same volume of Tris buffer with several brief pulses from a Polytron homogenizer. This particulate preparation is used for the μ-opioid binding assays. […] The tubes and filters are rinsed three times with 4 mL of 10 mM HEPES (pH 7.4) and the radioactivity associated with the filter circles determined using Formula 989 scintillation fluid (New England Nuclear, Boston, Mass.) in a scintillation counter.
The data are used to calculate either the % inhibition compared to control binding (when only a single concentration of test compound is evaluated) or a Ki value (when a range of concentrations is tested).
% Inhibition is calculated as follows: [formula]
Ki value is calculated using the LIGAND (Munson, P. J. and Rodbard, D., Anal. Biochem. 107: 220-239, 1980) data analysis program.

SMILES	Ki
CCNC(=O)c1ccc(C(=C2CC3CCC(C2)N3Cc2ccsc2)c2ccc3c(c2)OCO3)cc1 [Cpd 7]	3.05 nM
CCNC(=O)c1ccc(C=C2CC3CCC(C2)N3CCc2ccccc2)cc1 [Cpd 62]	8.56 nM
CCNC(=O)c1ccc(C=C2CC3CCC(C2)N3Cc2ccoc2)cc1 [Cpd 36]	109 nM
CCNC(=O)c1ccc(C(=C2CC3CCC(C2)N3Cc2ccoc2)c2ccc([N+](=O)[O-])cc2)cc1 [Cpd 126]	1.45 nM
CCNC(=O)c1ccc(C(=C2CC3CCC(C2)N3Cc2nccs2)c2ccc(C(N)=O)cc2)cc1 [Cpd 188]	491 nM

same assay, conditions: MOR binding Ki

SMILES	Ki
CCNC(=O)c1ccc(C(=C2CC3CCC(C2)N3CC=C(C)C)c2cc(N)cc(C(=O)O)c2)cc1 [Cpd 114]	4830 nM
CCNC(=O)c1ccc(C(=C2CC3CCC(C2)N3Cc2nccs2)c2ccc([N+](=O)[O-])cc2)cc1 [Cpd 130]	221 nM
CNC(=O)c1ccc(C=C2CC3CCC(C2)N3CC2CC2)cc1 [Cpd 105]	5620 nM
CCNC(=O)c1ccc(C(=C2CC3CCC(C2)N3Cc2ccoc2)c2cccc(CO)c2)cc1 [Cpd 178]	0.81 nM
CCNC(=O)c1ccc(C(=C2CC3CCC(C2)N3Cc2ccoc2)c2cccc(CN)c2)cc1 [Cpd 153]	71.1 nM
CCNC(=O)c1ccc(C(=C2CC3CCC(C2)N3Cc2nccs2)c2ccc(CCC(=O)O)cc2)cc1 [Cpd 132]	164 nM
CCNC(=O)c1ccc(C(=C2CC3CCC(C2)N3Cc2ccccn2)c2cc(N)cc(C(=O)O)c2)cc1 [Cpd 112]	10000 nM
CCNC(=O)c1ccc(C(=C2CC3CCC(C2)N3CC=C(C)C)c2cccc(-c3nnn[nH]3)c2)cc1 [Cpd 163]	49.3 nM
CCNC(=O)c1ccc(C(=C2CC3CCC(C2)N3CC=C(C)C)c2cccc(CN)c2)cc1 [Cpd 156]	5450 nM
CCNC(=O)c1ccc(C(=C2C[C@H]3CC[C@@H](C2)N3Cc2ccsc2)c2ccc(CO)cc2)cc1 (single isomer, unassigned) [Cpd 196, N-Ethyl-4-[(4-hydroxymethyl-phenyl)-(8-thiophen-3-ylmethyl-8-aza-bicyclo[3.2.1]oct-3-ylidene)-methyl]-benzamide]	4.1 nM
CCNC(=O)c1ccc(C(=C2CC3CCC(C2)N3Cc2ncc[nH]2)c2ccc3c(c2)OCO3)cc1 [Cpd 6]	35.8 nM
CCNC(=O)c1ccc(C(=C2CC3CCC(C2)N3Cc2ccco2)c2ccc(CC(N)C(=O)O)cc2)cc1 (stereo not shown) [Cpd 124]	94.6 nM
CCNC(=O)c1ccc(C(=C2CC3CCC(C2)N3CC=C(C)C)c2cccc3cccnc23)cc1 [Cpd 67]	119 nM
CCNC(=O)c1ccc(C(=C2CC3CCC(C2)N3C(=O)c2cccs2)c2cccnc2)cc1 [Cpd 208, N-Ethyl-4-{pyridin-3-yl-[8-(thiophene-2-carbonyl)-8-aza-bicyclo[3.2.1]oct-3-ylidene]-methyl}-benzamide]	61.7 nM
CCNC(=O)c1ccc(C(C#N)=C2CC3CCC(C2)N3)cc1 [Cpd 145]	945 nM
CCNC(=O)c1ccc(C(=C2CC3CCC(C2)N3CC#N)c2ccccc2)cc1 [Cpd 43, 4-[(8-Cyanomethyl-8-aza-bicyclo[3.2.1]oct-3-ylidene)-phenyl-methyl]-N-ethyl-benzamide]	721 nM
CCNC(=O)c1ccc(C(=C2CC3CCC(C2)N3Cc2ccc3ccccc3n2)c2cncnc2)cc1 [Cpd 101]	113 nM
CCNC(=O)c1ccc(C(Br)=C2CC3CCC(C2)N3Cc2[nH]cnc2C)cc1 [Cpd 27]	99.8 nM
CCNC(=O)c1ccc(C(=C2CC3CCC(C2)N3Cc2ccc3ccccc3n2)c2cccc(F)c2)cc1 [Cpd 3]	74.1 nM
CCNC(=O)c1ccc(C(=C2CC3CCC(C2)N3Cc2ccoc2)c2ccc(CCC(=O)O)cc2)cc1 [Cpd 127]	2.96 nM
CCNC(=O)c1ccc(C(=C2CC3CCC(C2)N3Cc2ccsc2)c2cccc(-c3nnn[nH]3)c2)cc1 [Cpd 169]	14.2 nM
CCNC(=O)c1ccc(C(=C2CC3CCC(C2)N3Cc2ccsc2)c2nnn[nH]2)cc1 [Cpd 148]	329 nM
CCNC(=O)c1ccc(C(=C2CC3CCC(C2)N3Cc2ccsc2)c2cccc(-c3nnn[nH]3)c2)cc1 (single isomer, unassigned) [Cpd 215]	3120 nM
